One test deals with IFN-β. Briefly: YFP (IFN-β) expression in DRG neurons of Ifnb1YFP/YFP reporter mice. The test is classed as in vivo, mouse. As for the experimental part:
Genetic mouse models: All mouse procedures were approved by the Duke University Institutional Animal Care and Use Committee (IACUC) and complied with relevant ethical guidelines. Mice were housed in an animal facility approved by the Association for Assessment and Accreditation of Laboratory Animal Care (AAALAC) under a 12 h light/dark cycle with food and water available ad libitum. All commercially-available genetic mouse models were obtained from Jackson Labs and maintained on a C57BL/6J background, including: Ifnb1YFP reporter mice (strain #010818) 1, STING “goldenticket” knockout mice 2 (STINGgt/gt; strain #017537), STING floxed/conditional knockout mice 3 (STINGfx/fx; strain #031670), Ifnar1 global knockout mice (Ifnar1−/−; strain #028288), Ifnar1 floxed/conditional knockout mice 4 (Ifnar1fx/fx; strain #028256), cGAS knockout mice 5 (cGAS−/−; strain #026554), and RIG-I knockout mice (RIG-I−/−; strain #46070-JAX). Nav1.8-Cre mice 6, also maintained on a C57BL/6J background, were a gift from Rohini Kuner (University of Heidelberg). NOD.CB17-Prkdcscid mice were also obtained from Jackson Labs (strain #001303) and maintained in a NOD/ShiLtSz genetic background. Unless otherwise noted, all experiments were conducted in adult (8-12-week-old) mice. Animals were randomly assigned to each experimental group. Both males and females were included in each group in a sex-matched manner. […]

Test [1] relates to outer lamina II (IIo) spinal cord interneurons. The experiment in a line: Whole-cell patch-clamp recording in mouse spinal cord slices. The conditions noted are these: slice incubation. The test is classed as cell-based. As for the experimental part: Whole-cell patch-clamp recording in mouse spinal cord slices: 4 to 6-week-old mice were anesthetized with urethane (1.5-2.0 g/kg, i.p.). […] After extraction of the spinal cord under anesthesia, animals were rapidly euthanized via decapitation. Transverse spinal slices (300 to 400 μm) were prepared using a vibrating microtome (VT1200S Leica). The slices were incubated at 32° C. for at least 30 min in ACSF equilibrated with 95% O2 and 5% CO2. The slices were placed in a recording chamber and completely submerged and perfused at a flow rate of 2 to 4 ml/min with ACSF saturated with 95% O2 and 5% CO2 at room temperature. Lamina II neurons in lumbar segments were identified as a translucent band under a microscope (BX51WIF; Olympus) with light transmitted from below. Whole-cell voltage-clamp recordings were made from outer lamina II neurons using patch pipettes. The patch pipette solution used to record sEPSCs contained 135 mM K-gluconate, 5 mM KCl, 0.5 mM CaCl2, 2 mM MgCl2, 5 mM EGTA, 5 mM HEPES, and 5 mM Mg-ATP (pH 7.3 adjusted with KOH). […] Signals were acquired using an […] amplifier. The data were stored and analyzed with a PC using pCLAMP 10.3 software.

In test [2] the test system is osteoclasts and osteoblasts in tumor-bearing distal femora. Briefly: TRAP and ALP staining on mouse femurs. It counts as in vivo. As for the experimental part: Bone histology, TRAP, and ALP staining on mouse femurs. Mice were deeply anesthetized and perfused intracardially with 4% paraformaldehyde (PFA) in 0.1M phosphate buffered saline. The femora were removed and then post-fixed for 48 h in the same fixative at 4° C. After demineralization in EDTA (10%) for 10 days, femur samples were dehydrated in an ascending gradient of ethanol (30-100%) followed by paraffin embedding. Serial sections for trabecular bone were obtained from the distal femur at a thickness of 5 μm followed by tartrate-resistant acid phosphatase (TRAP) staining or alkaline phosphatase (ALP) staining using TRAP kits (Fast Red TR/Naphthol AS-MX, Sigma, St. Louis, Mo.) and NBT/BCIP (Thermo Scientific), respectively. Bone static histomorphometric analyses for […] and osteoblast number (osteoblast number per trabecular bone surface, Ob.N/BS) were conducted using Image J (NIH) based on images taken by a Leica Q500MC microscope. Osteoclasts, osteoblasts and trabecular bone at the metaphysis of the femur (1500 μm proximal to the distal growth plate) were quantified, since bone destruction in this model mainly occurs in this area. Three sections per animal were randomly chosen and used for quantification.

Regarding `Nc1ncnc2c1ncn2[C@@H]1O[C@@H]2COP(=O)([S-])O[C@@H]3[C@H](O)[C@@H](COP([O-])(=S)O[C@H]2[C@H]1O)O[C@H]3n1cnc2c(N)ncnc21.[Na+].[Na+]` (stereo partly drawn) [ADU-S100, (2′-5′)-[P(R)]-5′-O-[(R)-hydroxymercaptophosphinyl]-P-thioadenylyl-adenosine cyclic dinucleotide], in the test on IFN-β, the “YFP (IFN-β) expression in DRG neurons” value is reported as “increased after ADU-S100 treatment”. Besides, the “frequency and amplitude of spontaneous EPSCs (sEPSCs)” value in test [1] was “decreased both the frequency and amplitude of spontaneous EPSCs”.
Regarding `Cc1ccc2c(=O)c3cccc(CC(=O)O)c3oc2c1C` [DMXAA, 2-(5,6-dimethyl-9-oxo-9H-xanthen-4-yl)acetic acid], the osteoblasts entry in test [2] (d11) is recorded as “no changes were observed in bone-forming osteoblasts”. For the same molecule, the osteoclast numbers result in test [2] (d11, 2×20 mg/kg i.p.) is “far significantly fewer osteoclasts”.
